These results are taken from ChEMBL document CHEMBL1151427, “Intrinsic novobiocin resistance in Staphylococcus saprophyticus” (2007).

≈ marks a conversion by molar mass, not a printed value.

Type in all cases: functional
Assay [1] is described as follows: Ratio of MIC for Staphylococcus aureus RN4220 harboring tetracycline-regulable expression vector pAJ96 expressing Staphylococcus saprophyticus GyrB gene to MIC for Staphylococcus aureus SH1000.
For assay [2], the system named is Staphylococcus aureus. Kind of assay: Antimicrobial activity against Staphylococcus aureus RN4220 harboring tetracycline-regulable expression vector pAJ96 expressing Staphylococcus aureus GyrB gene after 24 hrs by agar dilution method. Conditions: RN4220, 24 h.
Assay [3] relates to Staphylococcus aureus. Kind of assay: Antimicrobial activity against Staphylococcus aureus RN4220 harboring tetracycline-regulable expression vector pAJ96 expressing Staphylococcus saprophyticus GyrB K140R mutant gene after 24 hrs by agar dilution method. Conditions: RN4220, 24 h.
Assay [4] relates to Staphylococcus saprophyticus. As to the kind of experiment: Antimicrobial activity against Staphylococcus saprophyticus ATCC 15305 after 24 hrs by agar dilution method. The note with it: ATCC 15305, 24 h.
In assay [5] the test system is Staphylococcus aureus. As to the kind of experiment: Antimicrobial activity against Staphylococcus aureus RN4220 harboring tetracycline-regulable expression vector pAJ96 after 24 hrs by agar dilution method. The note with it: RN4220, 24 h.
Assay [6] in a line: Ratio of MIC for Staphylococcus aureus RN4220 harboring tetracycline-regulable expression vector pAJ96 expressing Staphylococcus saprophyticus GyrB gene to MIC for Staphylococcus aureus RN4220.
For assay [7], the system named is Staphylococcus aureus. Kind of assay: Antimicrobial activity against Staphylococcus aureus RN4220 after 24 hrs by agar dilution method. Conditions: RN4220, 24 h.
Assay [8] deals with Staphylococcus aureus. Kind of assay: Antimicrobial activity against Staphylococcus aureus SH1000 after 24 hrs by agar dilution method. The note with it: SH1000, 24 h.
In assay [9] the test system is Staphylococcus aureus. Kind of assay: Antimicrobial activity against Staphylococcus aureus RN4220 harboring tetracycline-regulable expression vector pAJ96 expressing Staphylococcus saprophyticus GyrB gene after 24 hrs by agar dilution method. The note with it: RN4220, 24 h.
Assay [10] deals with Staphylococcus aureus. As to the kind of experiment: Antimicrobial activity against Staphylococcus aureus RN4220 harboring tetracycline-regulable expression vector pAJ96 expressing Staphylococcus saprophyticus GyrB G85D mutant gene after 24 hrs by agar dilution method. Conditions: RN4220, 24 h.
The subject of assay [11] is Staphylococcus aureus. Kind of assay: Antimicrobial activity against Staphylococcus aureus RN4220 harboring tetracycline-regulable expression vector pAJ96 expressing Staphylococcus saprophyticus GyrB G85D, K140R mutant gene after 24 hrs by agar dilution method. Conditions: RN4220, 24 h.

For the molecule `CO[C@@H]1[C@@H](OC(N)=O)[C@@H](O)[C@H](Oc2ccc3c(O)c(NC(=O)c4ccc(O)c(CC=C(C)C)c4)c(=O)oc3c2C)OC1(C)C` [NOVOBIOCIN], the Ratio in assay [1] and in assay [6] was 64 throughout. Further, the minimum inhibitory concentration (MIC) with Staphylococcus aureus [2] was found to be 0.125 µg/mL (≈ 0.204 µM); in the assay on Staphylococcus aureus [3] it was 2 µg/mL (≈ 3.26 µM); in assay [4] it was 16 µg/mL (≈ 26.1 µM); in the assay with Staphylococcus aureus [5], 0.125 µg/mL (≈ 0.204 µM); with Staphylococcus aureus [7], 0.125 µg/mL (≈ 0.204 µM); in the assay with Staphylococcus aureus [8], 0.125 µg/mL (≈ 0.204 µM). For the same molecule, the minimal inhibitory concentration (MIC) turned out to be 8 µg/mL (≈ 13.1 µM) against Staphylococcus aureus [9], 1 µg/mL (≈ 1.63 µM) in the assay with Staphylococcus aureus [10] and 0.125 µg/mL (≈ 0.204 µM) with Staphylococcus aureus [11].
